Each structure is given as a SMILES string. Where “and” joins values, the source holds several entries; their conditions need not be identical. Identical values can stand only once. Some results are limits rather than exact numbers.

Chain of Adenosine A2A receptor (P29274 whole entry): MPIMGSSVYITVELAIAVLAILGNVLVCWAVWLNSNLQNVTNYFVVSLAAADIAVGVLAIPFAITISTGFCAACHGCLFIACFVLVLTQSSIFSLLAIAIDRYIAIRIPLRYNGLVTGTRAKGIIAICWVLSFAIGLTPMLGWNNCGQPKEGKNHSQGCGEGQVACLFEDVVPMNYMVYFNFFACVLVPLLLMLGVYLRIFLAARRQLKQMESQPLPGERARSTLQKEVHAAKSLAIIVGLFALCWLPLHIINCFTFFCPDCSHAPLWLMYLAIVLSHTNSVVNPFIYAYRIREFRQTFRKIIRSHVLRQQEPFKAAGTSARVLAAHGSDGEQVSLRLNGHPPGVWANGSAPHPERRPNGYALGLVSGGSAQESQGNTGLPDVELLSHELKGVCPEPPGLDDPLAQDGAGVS

One assay addresses Adenosine A2A receptor (Homo sapiens, UniProt P29274). Kind of assay: cAMP assay in 293A cells stably expressing the adenosine A2A receptor (CGS21680 stimulation, HTRF). Type of assay: cell-based. More on the design: expressed in transfected cells; host or cells: 293A cells (Invitrogen, Cat# R705-07) infected with A2A-expressing lentivirus (custom packaged by Biosettia), puromycin selected. The following applies: 293A cells stably expressing A2A receptor; 0.1% BSA; 1 uM CGS21680 stimulation; replicate values separated by /; read-out: cAMP (nM) 0.1% BSA, 1 uM CGS. (In general: cAMP levels reflect the balance of adenylyl cyclase and phosphodiesterase activity.)
As for `Cc1cc(-c2c(OCc3cc(-c4nn[nH]n4)cc(C(C)(C)O)n3)nc(N)nc2-c2ccc(F)cc2)cc(C(F)F)n1` [Example 441, 2-(6-(((2-amino-5-(2-(difluoromethyl)-6-methylpyridin-4-yl)-6-(4-fluorophenyl)pyrimidin-4-yl)oxy)methyl)-4-(2H-tetrazol-5-yl)pyridin-2-yl)propan-2-ol], the IC50 is above 3000 nM.

For the compound `Cc1cc(-c2c(OCc3nccc4c3nnn4C)nc(N)nc2-c2ccc(F)cc2)cc(C(F)F)n1` [Example 416, 5-(2-(difluoromethyl)-6-methylpyridin-4-yl)-4-(4-fluorophenyl)-6-((1-methyl-1H-[1,2,3]triazolo[4,5-c]pyridin-4-yl)methoxy)pyrimidin-2-amine], the IC50 is 498 nM and 615 nM.

The assay is the same for the next values; noted with them: 293A-A2AR cells, 0.1% BSA, 1 uM CGS; read-out: cAMP (nM) 0.1% BSA, 1 uM CGS.
Take `Cc1cc(-c2c(OCc3cc4ccccc4o3)nc(N)nc2-c2ccc(F)cc2)cc(C(F)F)n1` [Example 331, 4-(benzofuran-2-ylmethoxy)-5-(2-(difluoromethyl)-6-methylpyridin-4-yl)-6-(4-fluorophenyl)pyrimidin-2-amine]: the IC50 was determined as 648 nM.

On to `Cc1cc(-c2c(OCc3nc4c(C(C)(C)C(=O)O)cccc4n3C)nc(N)nc2-c2ccc(F)cc2)cc(C(F)F)n1` [Example 359, 2-(2-(((2-amino-5-(2-(difluoromethyl)-6-methylpyridin-4-yl)-6-(4-fluorophenyl)pyrimidin-4-yl)oxy)methyl)-1-methyl-1H-benzo[d]imidazol-4-yl)-2-methylpropanoic acid], for which the IC50 was 9470 nM and 8890 nM.

Regarding `Cc1cc(-c2c(OCc3ccncn3)nc(N)nc2-c2cccc(C#N)c2C)cc(C(F)F)n1` [Example 240, 3-(2-amino-5-(2-(difluoromethyl)-6-methylpyridin-4-yl)-6-(pyrimidin-4-ylmethoxy)pyrimidin-4-yl)-2-methylbenzonitrile], the IC50 is 17000 nM.

Take `Cc1cc(-c2c(OCc3cccc(C(=O)O)n3)nc(N)nc2-c2ccc(F)cc2)cc(C(F)F)n1` [Example 274, 6-(((2-amino-5-(2-(difluoromethyl)-6-methylpyridin-4-yl)-6-(4-fluorophenyl)pyrimidin-4-yl)oxy)methyl)picolinic acid]: the IC50 stood at 3210 nM.

Take `Cc1cc(-c2c(OCc3cccc(C(C)(C)OCC(=O)O)n3)nc(N)nc2-c2ccc(F)cc2)cc(C(F)F)n1` [Example 296, 2-((2-(6-(((2-amino-5-(2-(difluoromethyl)-6-methylpyridin-4-yl)-6-(4-fluorophenyl)pyrimidin-4-yl)oxy)methyl)pyridin-2-yl)propan-2-yl)oxy)acetic acid]: the IC50 stood at 3630 nM.

As to `Cc1cc(-c2c(OCCC(C)(C)C(=O)O)nc(N)nc2-c2cccc(C#N)c2C)cc(C(F)F)n1` [Example 250, 4-((2-amino-6-(3-cyano-2-methylphenyl)-5-(2-(difluoromethyl)-6-methylpyridin-4-yl)pyrimidin-4-yl)oxy)-2,2-dimethylbutanoic acid], the IC50 is 8570 nM.

Regarding `CCn1c(COc2nc(N)nc(-c3ccc(F)cc3)c2-c2cc(C)nc(C(F)F)c2)nc2ccc(C(C)(C)C(=O)O)nc21` [Example 365, 2-(2-(((2-amino-5-(2-(difluoromethyl)-6-methylpyridin-4-yl)-6-(4-fluorophenyl)pyrimidin-4-yl)oxy)methyl)-3-ethyl-3H-imidazo[4,5-b]pyridin-5-yl)-2-methylpropanoic acid], the IC50 is above 25000 nM.

`CCc1nnn(C[C@H](O)CO)c1COc1nc(N)nc(-c2ccc(F)cc2)c1-c1cc(C)nc(C(F)F)c1` [Example 318, (S)-3-(5-(((2-amino-5-(2-(difluoromethyl)-6-methylpyridin-4-yl)-6-(4-fluorophenyl)pyrimidin-4-yl)oxy)methyl)-4-ethyl-1H-1,2,3-triazol-1-yl)propane-1,2-diol]: the IC50 was 1350 nM.

For the compound `Cc1cc(-c2c(OCCn3cc(C(=O)O)ccc3=O)nc(N)nc2-c2ccc(F)cc2)cc(C(F)F)n1` [Example 336, 1-(2-((2-amino-5-(2-(difluoromethyl)-6-methylpyridin-4-yl)-6-(4-fluorophenyl)pyrimidin-4-yl)oxy)ethyl)-6-oxo-1,6-dihydropyridine-3-carboxylic acid], the IC50 is above 25000 nM.

On to `Cc1cc(-c2c(OCc3ccc(C)c(C(C)(C)C(=O)O)n3)nc(N)nc2-c2ccc(F)cc2)cc(C(F)F)n1` [Example 377, 2-(6-(((2-amino-5-(2-(difluoromethyl)-6-methylpyridin-4-yl)-6-(4-fluorophenyl)pyrimidin-4-yl)oxy)methyl)-3-methylpyridin-2-yl)-2-methylpropanoic acid], for which the IC50 is 21100 nM.

Turning to `Cc1cc(-c2c(OCc3nc4ccccc4s3)nc(N)nc2-c2ccc(F)cc2)cc(C(F)F)n1` [Example 347, 4-(benzo[d]thiazol-2-ylmethoxy)-5-(2-(difluoromethyl)-6-methylpyridin-4-yl)-6-(4-fluorophenyl)pyrimidin-2-amine], the IC50 worked out at 634 nM.

For `Cc1cc(-c2c(OCc3nccn3CC(C)(C)O)nc(N)nc2-c2cccc(C#N)c2C)cc(C(F)F)n1` [Example 236, 3-(2-amino-5-(2-(difluoromethyl)-6-methylpyridin-4-yl)-6-((1-(2-hydroxy-2-methylpropyl)-1H-imidazol-2-yl)methoxy)pyrimidin-4-yl)-2-methylbenzonitrile], the IC50 was above 25000 nM.

For `CCc1c(COc2nc(N)nc(-c3ccc(F)cc3)c2-c2cc(C)nc(C(F)F)c2)nnn1CC(=O)O` [Example 232, 2-(4-(((2-amino-5-(2-(difluoromethyl)-6-methylpyridin-4-yl)-6-(4-fluorophenyl)pyrimidin-4-yl)oxy)methyl)-5-ethyl-1H-1,2,3-triazol-1-yl)acetic acid], the IC50 came to 4510 nM.

On to `CCn1c(COc2nc(N)nc(-c3ccc(F)cc3)c2-c2cc(C)nc(C(F)F)c2)nc2cc(C(=O)O)ccc21` [Example 333, 2-(((2-amino-5-(2-(difluoromethyl)-6-methylpyridin-4-yl)-6-(4-fluorophenyl)pyrimidin-4-yl)oxy)methyl)-1-ethyl-1H-benzo[d]imidazole-5-carboxylic acid], for which the IC50 is above 5000 nM.

As to `Cc1cc(-c2c(OC[C@H]3CC[C@H](C(=O)O)CC3)nc(N)nc2-c2ccc(F)cc2)cc(C(F)F)n1` [Example 279, (1,4-trans)-4-(((2-amino-5-(2-(difluoromethyl)-6-methylpyridin-4-yl)-6-(4-fluorophenyl)pyrimidin-4-yl)oxy)methyl)cyclohexane-1-carboxylic acid], the IC50 is above 25000 nM.

Regarding `CCn1c(COc2nc(N)nc(-c3ccc(F)cc3)c2-c2cc(C)nc(C(F)F)c2)nc2ccc(C(=O)O)cc21` [Example 332, 2-(((2-amino-5-(2-(difluoromethyl)-6-methylpyridin-4-yl)-6-(4-fluorophenyl)pyrimidin-4-yl)oxy)methyl)-1-ethyl-1H-benzo[d]imidazole-6-carboxylic acid], the IC50 was above 5000 nM.

For the compound `Cc1cc(-c2c(OCc3cccc(N4CC[C@H](C(=O)O)C4)n3)nc(N)nc2-c2ccc(F)cc2)cc(C(F)F)n1` [Example 309, (S)-1-(6-(((2-amino-5-(2-(difluoromethyl)-6-methylpyridin-4-yl)-6-(4-fluorophenyl)pyrimidin-4-yl)oxy)methyl)pyridin-2-yl)pyrrolidine-3-carboxylic acid], the IC50 is 1370 nM.

On to `CCc1nn(C[C@@H](O)CO)nc1COc1nc(N)nc(-c2ccc(F)cc2)c1-c1cc(C)nc(C(F)F)c1` [Example 288, (R)-3-(4-(((2-amino-5-(2-(difluoromethyl)-6-methylpyridin-4-yl)-6-(4-fluorophenyl)pyrimidin-4-yl)oxy)methyl)-5-ethyl-2H-1,2,3-triazol-2-yl)propane-1,2-diol], for which the IC50 came out at 2390 nM.

With `Cc1cc(-c2c(OCCn3ccc(C(=O)O)cc3=O)nc(N)nc2-c2ccc(F)cc2)cc(C(F)F)n1` [Example 334, 1-(2-((2-amino-5-(2-(difluoromethyl)-6-methylpyridin-4-yl)-6-(4-fluorophenyl)pyrimidin-4-yl)oxy)ethyl)-2-oxo-1,2-dihydropyridine-4-carboxylic acid], the IC50 came to 3170 nM.

As to `Cc1cc(-c2c(OCc3ccn(C)c(=O)c3)nc(N)nc2-c2ccc(F)cc2)cc(C(F)F)n1` [Example 280, 4-(((2-amino-5-(2-(difluoromethyl)-6-methylpyridin-4-yl)-6-(4-fluorophenyl)pyrimidin-4-yl)oxy)methyl)-1-methylpyridin-2(1H)-one], the IC50 turned out to be 5800 nM.

For `CCn1nccc1COc1nc(N)nc(-c2cccc(C#N)c2C)c1-c1cc(C)nc(C(F)F)c1` [Example 243, 3-(2-amino-5-(2-(difluoromethyl)-6-methylpyridin-4-yl)-6-((1-ethyl-1H-pyrazol-5-yl)methoxy)pyrimidin-4-yl)-2-methylbenzonitrile], the IC50 was 2950 nM.

Take `Cc1cc(-c2c(OCCc3cccc(C(C)(C)C#N)n3)nc(N)nc2-c2ccc(F)cc2)cc(C(F)F)n1` [Example 362, 2-(6-(2-((2-amino-5-(2-(difluoromethyl)-6-methylpyridin-4-yl)-6-(4-fluorophenyl)pyrimidin-4-yl)oxy)ethyl)pyridin-2-yl)-2-methylpropanenitrile]: the IC50 is 85 nM and 158 nM and 45 nM.

For the compound `Cc1cc(-c2c(OCc3nc4cc(C(C)(C)O)ccc4n3C)nc(N)nc2-c2ccc(F)cc2)cc(C(F)F)n1` [Example 357, 2-(2-(((2-amino-5-(2-(difluoromethyl)-6-methylpyridin-4-yl)-6-(4-fluorophenyl)pyrimidin-4-yl)oxy)methyl)-1-methyl-1H-benzo[d]imidazol-5-yl)propan-2-ol], the IC50 was 3910 nM and 3930 nM.

Consider `Cc1cc(-c2c(OCCN(C)c3cccnn3)nc(N)nc2-c2cccc(C#N)c2C)cc(C(F)F)n1` [Example 246, 3-(2-amino-5-(2-(difluoromethyl)-6-methylpyridin-4-yl)-6-(2-(methyl(pyridazin-3-yl)amino)ethoxy)pyrimidin-4-yl)-2-methylbenzonitrile], for which the IC50 turned out to be 981 nM.

Values taken from patent US20210355104A1, “ADENOSINE RECEPTOR BINDING COMPOUNDS” (Nikang Therapeuticsm Inc., priority 2018, published 2021).
